For series [1], the target named is T1, A2B receptors (Homo sapiens, UniProt P29275).
T1 sequence (P29275 1-332): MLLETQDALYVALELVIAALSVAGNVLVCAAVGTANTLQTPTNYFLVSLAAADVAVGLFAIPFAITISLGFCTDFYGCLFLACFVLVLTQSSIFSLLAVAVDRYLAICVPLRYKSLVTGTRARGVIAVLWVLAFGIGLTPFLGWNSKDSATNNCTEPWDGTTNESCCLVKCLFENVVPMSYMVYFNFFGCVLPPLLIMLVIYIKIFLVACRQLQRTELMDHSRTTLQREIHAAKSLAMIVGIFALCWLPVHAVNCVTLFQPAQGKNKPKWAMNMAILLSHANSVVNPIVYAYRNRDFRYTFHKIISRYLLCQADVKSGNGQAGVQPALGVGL
Description: functional cAMP (HTRF) assay, recombinant HEK293 cells expressing human A2B receptor, agonist NECA. Format: cell-based. On the set-up: expressed in transfected cells; host or cells: HEK293. For orientation: In TR-FRET formats the signal depends on donor and acceptor labels being close together.

The target in series [2] is T2, human A2A receptor (Homo sapiens, UniProt P29274).
T2 construct: expressed in transfected cells; host or cells: HEK293
T2 sequence (P29274 whole entry): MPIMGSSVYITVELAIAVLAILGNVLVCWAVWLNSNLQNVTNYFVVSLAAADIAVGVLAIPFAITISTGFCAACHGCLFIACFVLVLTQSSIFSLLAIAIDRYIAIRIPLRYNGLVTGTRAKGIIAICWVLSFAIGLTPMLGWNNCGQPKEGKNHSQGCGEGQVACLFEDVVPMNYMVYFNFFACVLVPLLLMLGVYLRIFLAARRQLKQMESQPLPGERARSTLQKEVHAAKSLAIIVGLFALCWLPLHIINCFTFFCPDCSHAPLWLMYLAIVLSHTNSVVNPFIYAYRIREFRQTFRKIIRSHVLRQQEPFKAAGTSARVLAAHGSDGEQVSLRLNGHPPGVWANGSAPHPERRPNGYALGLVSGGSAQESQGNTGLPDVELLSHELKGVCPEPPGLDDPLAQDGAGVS
Description: functional cAMP (HTRF) assay, recombinant HEK293 cells expressing human A2A receptor, agonist NECA. Format: cell-based.

Series [3] can be described thus: pharmacokinetic properties in mouse after single intravenous and oral administration. Format: in vivo. The following applies: PK data in mouse; for Feces iv: @0.2 (dose, unit not given); for clearance / half-life / Cmax / Vd: female, plasma, 0.2 mg/kg; for Cmax: dose-normalized to 1 mg/kg; for Vd: read-out: Vss. From the text:
The objective of the study was to obtain information on the pharmacokinetic properties of the compounds of the present invention in female Wistar rats/mice following single intravenous and oral administration.
Female Wistar rats/mice (n=6) received either a single intravenous (bolus) injection or an oral administration (by gavage) of the tested compound.
The concentrations of the compounds in plasma, feces were quantified using an UPLC method with tandem mass spectrometric detection (LC-MS/MS) previously developed at the ‘Institute of Drug Metabolism and Pharmacokinetics’. The LC-MS/MS system consisted of a Waters Acquity UPLC coupled to an AB Sciex mass spectrometer API 5500 Q-trap. […] The detection of the compounds was performed using multiple reaction monitoring in the positive ionization mode. Plasma samples were spiked with internal standard (20 μl) and the analyte was extracted from the matrix using tertiary-butyl methyl ether (tBME). The organic phase was evaporated to dryness under a stream of nitrogen. The residue was dissolved in acetonitrile/0.1% formic acid for LC-MS/MS analysis. Feces samples were homogenized with 4-times their volume of an ethanol/water mixture (4:1, v/v). Aliquots of the aqueous-ethanolic extracts were spiked with internal standard, diluted with acetonitrile/water (1:1, v/v) and directly injected into the LC-MS/MS system.
Pharmacokinetic parameters Cmax and tmax were taken from the observed data. […] AUC values were calculated by non-compartmental analysis using the linear up/log down method. Numerical data for mean plasma concentrations and derived pharmacokinetic parameters were rounded to 3 significant digits for presentation.

Series [4] deals with T3, human A3 receptor (Homo sapiens, UniProt P0DMS8).
T3 construct: expressed in transfected cells; host or cells: CHO
T3 sequence (P0DMS8 1-318): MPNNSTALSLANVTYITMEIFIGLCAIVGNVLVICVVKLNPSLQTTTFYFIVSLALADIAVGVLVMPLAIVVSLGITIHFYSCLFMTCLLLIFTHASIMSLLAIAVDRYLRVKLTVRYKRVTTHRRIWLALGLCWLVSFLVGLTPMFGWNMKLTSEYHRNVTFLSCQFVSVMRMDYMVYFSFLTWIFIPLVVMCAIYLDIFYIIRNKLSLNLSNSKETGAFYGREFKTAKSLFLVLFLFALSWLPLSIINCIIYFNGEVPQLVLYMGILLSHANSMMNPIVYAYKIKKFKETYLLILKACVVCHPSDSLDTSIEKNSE
Description: functional cAMP (HTRF) assay, recombinant CHO cells expressing human A3 receptor, forskolin, agonist IB-MECA. It is filed as cell-based. In short, it runs like this:
(§1)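 Recombinant CHO cells expressing A1 or A3 receptor (Gi-coupled) were stimulated with forskolin together with test compound and agonist (CPA for A1, IB-MECA for A3), incubated 30 min, then cellular cAMP was read by HTRF. Data were normalized to inhibitor control and DMSO neutral control, then curve-fitted.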

In series [5] the target is T4, human A1 receptor (Homo sapiens, UniProt P30542).
T4 construct: expressed in transfected cells; host or cells: CHO
T4 sequence (P30542 1-326): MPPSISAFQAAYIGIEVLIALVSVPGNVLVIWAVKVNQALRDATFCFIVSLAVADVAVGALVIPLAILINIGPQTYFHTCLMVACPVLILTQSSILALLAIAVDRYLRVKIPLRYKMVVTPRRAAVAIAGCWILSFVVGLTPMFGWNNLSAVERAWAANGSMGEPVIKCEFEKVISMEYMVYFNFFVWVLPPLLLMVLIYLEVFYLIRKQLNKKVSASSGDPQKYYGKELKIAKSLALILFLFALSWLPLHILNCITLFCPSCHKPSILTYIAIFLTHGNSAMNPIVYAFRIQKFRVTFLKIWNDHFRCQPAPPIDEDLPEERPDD
Briefly: functional cAMP (HTRF) assay, recombinant CHO cells expressing human A1 receptor, forskolin, agonist CPA. It is filed as cell-based. In short, it runs like this:
as §1

For orientation: IC50 means the concentration at which inhibition is half-maximal. The term half-life denotes the time needed for the level to fall by half in the phase considered. A lower half-life goes with fast loss. A word on the Cmax: it is the peak of the concentration-time curve.

Some results are limits rather than exact numbers.

As for `COc1ccc(C2CCOCC2)c2nc(NC(=O)c3ccc(C(=O)N(C)C)cc3)[nH]c12` [compound 133, N4-[7-methoxy-4-(oxan-4-yl)-1H-1,3-benzodiazol-2-yl]-N1,N1-dimethylbenzene-1,4-dicarboxamide], the 50% inhibitory concentration (IC50) in series [1] was under 1000 nM. Moreover, the 50% inhibitory concentration (IC50) in series [2] is under 10 nM. Besides, in series [3], the Feces iv is 2.5@0.2%, the clearance is 12.7 mL/min/kg, the half-life is 40.1 min and the peak level (Cmax) was 2640 ng/mL. Moreover, in series [3], the Vd worked out at 0.402 L/kg. For the same compound, the half-inhibitory concentration (IC50) in series [4] was over 1000 nM. Also, the IC50 in series [5] was over 1000 nM.
Regarding `COc1ccc(C2CCOCC2)c2nc(NC(=O)c3ccc(CN4CCCC4=O)cc3)[nH]c12` [compound 138, N-[7-methoxy-4-(oxan-4-yl)-1H-1,3-benzodiazol-2-yl]-4-[(2-oxopyrrolidin-1-yl)methyl]benzamide], in series [1], the 50% inhibitory concentration (IC50) is under 1000 nM. Besides, in series [2], the IC50 is under 10 nM. Moreover, in series [3], the clearance is 28.5 mL/min/kg, the half-life is 32.3 min, the concentration peaked (Cmax) at 1.9 ng/mL and the Vd turned out to be 1.06 L/kg. In addition, the half-maximal inhibitory concentration (IC50) in series [4] is over 1000 nM. Moreover, the half-maximal inhibitory concentration (IC50) in series [5] was over 1000 nM.
Take `COc1ccc(C2CCOCC2)c2nc(NC(=O)c3ccc(Cn4ccnc4)cc3)[nH]c12` [compound 97, 4-[(1H-imidazol-1-yl)methyl]-N-[7-methoxy-4-(oxan-4-yl)-1H-1,3-benzodiazol-2-yl]benzamide]: in series [1], the IC50 was under 100 nM. Besides, in series [2], the IC50 was under 10 nM. In series [3], the Feces iv is reported as 29@0.2%, the clearance was 12.5 mL/min/kg, the half-life was 58 min and the Cmax came out at 1050 ng/mL. In addition, the Vd in series [3] is 1.01 L/kg. Further, in series [4], the IC50 is over 1000 nM. Further, the IC50 in series [5] was over 1000 nM.
`COc1ccc(-c2ccccc2)c2nc(NC(=O)N3CCC(C)(O)CC3)[nH]c12` [compound 12, 4-Hydroxy-4-methyl-piperidine-1-carboxylic acid (7-methoxy-4-phenyl-1H-benzoimidazol-2-yl)-amide]: the IC50 in series [1] is under 1000 nM. The IC50 in series [2] is under 10 nM. In series [3], the Feces iv is 27@0.2%, the clearance is 11.4 mL/min/kg, the half-life was 42.6 min and the Cmax was 1820 ng/mL. Moreover, the Vd in series [3] amounted to 0.568 L/kg. The IC50 in series [4] is under 1000 nM. Further, in series [5], the IC50 was under 1000 nM.
Turning to `COc1ccc(N2CCOCC2)c2nc(NC(=O)c3cnn(C)c3)[nH]c12` [compound 136, N-[7-methoxy-4-(morpholin-4-yl)-1H-1,3-benzodiazol-2-yl]-1-methyl-1H-pyrazole-4-carboxamide], the half-inhibitory concentration (IC50) in series [1] is over 1000 nM. Further, the IC50 in series [2] is under 10 nM. Also, in series [3], the Feces iv is listed as 5.6@0.2%, the clearance is 5.55 mL/min/kg, the half-life is 69 min and the peak concentration (Cmax) amounted to 2100 ng/mL. In addition, the Vd in series [3] stood at 0.522 L/kg. Further, the 50% inhibitory concentration (IC50) in series [4] was over 1000 nM. In addition, in series [5], the IC50 is over 1000 nM.
